Assay results published in ChEMBL document CHEMBL1133238, “Structure-activity relationships of neuropeptide Y Y1 receptor antagonists related to BIBP 3226” (Bioorg Med Chem Lett, 2000).
Blank lines part the entries; values can stand above or below the compound they belong to.

What was measured:
[1] = molecular target: T1, Neuropeptide Y receptor type 1 (Homo sapiens, UniProt P25929); assay: NPY Y1-antagonistic activity in HEL cells by measuring the inhibition of porcine NPY (10 nM) stimulated increase in the intracellular [Ca2+] concentration in a FURA-assay.; type: functional, cell-based
T1 sequence (P25929 whole entry): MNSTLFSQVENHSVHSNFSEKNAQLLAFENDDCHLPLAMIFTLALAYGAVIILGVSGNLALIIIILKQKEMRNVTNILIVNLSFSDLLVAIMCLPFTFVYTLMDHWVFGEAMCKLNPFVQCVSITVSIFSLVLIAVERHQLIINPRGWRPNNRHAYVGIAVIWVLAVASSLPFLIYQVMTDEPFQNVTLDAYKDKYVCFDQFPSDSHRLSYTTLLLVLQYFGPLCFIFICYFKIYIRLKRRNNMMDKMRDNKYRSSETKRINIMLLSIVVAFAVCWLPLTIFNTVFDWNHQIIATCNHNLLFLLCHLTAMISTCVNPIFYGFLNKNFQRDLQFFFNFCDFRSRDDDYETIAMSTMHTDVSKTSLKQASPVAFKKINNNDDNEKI

[2] = molecular target: T2, Neuropeptide Y receptor type 2 (Homo sapiens, UniProt P49146); assay: Inhibition of binding of [3H]propionyl-NPY (1 nM) to Neuropeptide Y receptor type 2 in SMS-KAN cell membranes
T2 sequence (P49146 whole entry): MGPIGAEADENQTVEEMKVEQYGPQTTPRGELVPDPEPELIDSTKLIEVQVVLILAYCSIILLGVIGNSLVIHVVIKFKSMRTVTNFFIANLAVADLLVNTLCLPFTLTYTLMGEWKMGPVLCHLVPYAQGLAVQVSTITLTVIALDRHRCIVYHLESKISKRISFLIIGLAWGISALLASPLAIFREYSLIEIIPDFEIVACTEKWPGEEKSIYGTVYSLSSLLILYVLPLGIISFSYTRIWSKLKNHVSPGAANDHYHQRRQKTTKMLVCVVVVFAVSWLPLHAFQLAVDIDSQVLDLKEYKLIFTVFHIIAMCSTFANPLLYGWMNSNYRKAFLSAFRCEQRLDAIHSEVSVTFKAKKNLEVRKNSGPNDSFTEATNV

[3] = molecular target: T3, Neuropeptide Y receptor type 5 (Homo sapiens, UniProt Q15761); assay: Inhibition of binding of [3H]propionyl-NPY (1 nM) to Neuropeptide Y receptor type 5 in HEC-1-B cells; type: cell-based
T3 sequence (Q15761 whole entry): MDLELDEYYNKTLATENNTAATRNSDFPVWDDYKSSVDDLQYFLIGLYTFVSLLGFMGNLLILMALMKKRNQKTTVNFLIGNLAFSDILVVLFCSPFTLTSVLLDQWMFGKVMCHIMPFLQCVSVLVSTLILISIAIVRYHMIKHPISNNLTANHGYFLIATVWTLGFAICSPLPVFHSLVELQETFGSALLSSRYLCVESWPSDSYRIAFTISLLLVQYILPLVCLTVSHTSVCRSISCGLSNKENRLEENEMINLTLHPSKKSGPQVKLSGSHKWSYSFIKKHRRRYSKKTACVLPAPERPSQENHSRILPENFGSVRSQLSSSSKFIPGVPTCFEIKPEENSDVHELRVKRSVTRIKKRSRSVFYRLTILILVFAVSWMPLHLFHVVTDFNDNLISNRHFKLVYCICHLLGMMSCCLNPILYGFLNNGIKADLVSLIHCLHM

[4] = molecular target: T1, Neuropeptide Y receptor type 1; assay: Inhibition of binding of [3H]propionyl-NPY (1 nM) to Neuropeptide Y receptor type 1 in SK-N-MC cells; type: cell-based
[5] = molecular target: Neuropeptide Y receptor type 1 (Homo sapiens) (UniProt P25929); assay: NPY Y1-antagonistic activity in HEL cells by measuring the inhibition of porcine NPY (10 nM) stimulated increase in the intracellular [Ca2+] concentration in a FURA-assay;Inactive, less than 20% inhibition at […]

IC50 ([1]; read-out: IC50): 8.1 µM
Compound: N=C(N)NCCCC(NC(=O)C(c1ccccc1)c1ccccc1)C(=O)N[C@@H](C(N)=O)c1ccc(O)cc1 (some centres not stated)

IC50 ([1]; read-out: IC50): 1.1 µM
Compound: N=C(N)NCCCC(NC(=O)C(c1ccc(Cl)cc1)c1ccc(Cl)cc1)C(=O)N1CCCc2ccccc2C1 (configuration not stated)

IC50 ([1]; read-out: IC50): 0.081 µM
IC50 [2]: 97 µM
IC50 [3]: 2.6 µM
IC50 [4]: 0.17 µM
Compound: N=C(N)NCCCC(NC(=O)C(c1ccccc1)c1ccc(Cl)cc1)C(=O)NCc1ccccc1 (configuration not stated)

IC50 ([1]; read-out: IC50): 0.2 µM
IC50 [2]: 177 µM
IC50 [3]: 48 µM
IC50 [4]: 0.15 µM
Compound: C[C@@H](NC(=O)C(CCCNC(=N)N)NC(=O)C(c1ccccc1)c1ccccc1)c1ccccc1 (some centres not stated)

IC50 ([1]; read-out: IC50): 3 µM
IC50 [2]: 59 µM
IC50 [3]: 11.9 µM
IC50 [4]: 5.3 µM
Compound: N=C(N)NCCCC(NC(=O)C(c1ccccc1)c1ccc(Cl)cc1)C(=O)N[C@H]1CCc2ccccc21 (some centres not stated)

IC50 ([1]; read-out: IC50): 0.1 µM
Compound: N=C(N)NCCCC(NC(=O)C(c1ccc(Cl)cc1)c1ccc(Cl)cc1)C(=O)NCc1ccccc1 (configuration not stated)

IC50 ([1]; read-out: IC50): 0.9 µM
IC50 [2]: 540 µM
IC50 [3]: 68 µM
IC50 [4]: 0.184 µM
Compound: N=C(N)NCCCC(NC(=O)C(c1ccccc1)c1ccccc1)C(=O)N[C@H](CO)c1ccccc1 (some centres not stated)

IC50 ([1]; read-out: IC50): 4.6 µM
IC50 [2]: > 400 µM
IC50 [3]: 163 µM
IC50 [4]: 2.4 µM
Compound: N=C(N)NCCCC(NC(=O)C(c1ccccc1)c1ccccc1)C(=O)N[C@@H](C(N)=O)c1ccccc1 (some centres not stated)

IC50 ([1]; read-out: IC50): 0.28 µM
IC50 [2]: 247 µM
IC50 [3]: 25 µM
IC50 [4]: 0.67 µM
Compound: N=C(N)NCCCC(NC(=O)C(c1ccccc1)c1ccccc1)C(=O)N1CCCc2cc(O)ccc2C1 (configuration not stated)

IC50 ([1]; read-out: IC50): > 10 µM
Compound: N=C(N)NCCCC(NC(=O)C(c1ccc(Cl)cc1)c1ccc(Cl)cc1)C(=O)N[C@H]1CCc2ccccc21 (some centres not stated)

IC50 [2]: > 100 µM
IC50 [3]: 80 µM
Compound: N=C(N)NCCCC(NC(=O)C(c1ccccc1)c1ccccc1)C(=O)NCc1ccc(O)cc1 (configuration not stated)

The remaining lines, values behind:

Compound: N=C(N)NCCCC(NC(=O)C(c1ccccc1)c1ccccc1)C(=O)NCc1ccccc1 (configuration not stated)
IC50 ([1]; read-out: IC50): 0.11 µM

Compound: N=C(NCCCc1ccccc1)NCCCC(NC(=O)Cc1ccc(-c2ccccc2)cc1)C(=O)N1CCCc2cc(O)ccc2C1 (configuration not stated)
IC50 ([1]; read-out: IC50): 11.9 µM
IC50 [2]: 78 µM
IC50 [3]: 0.77 µM
IC50 [4]: 22 µM

Compound: N=C(N)NCCCC(NC(=O)Cc1ccc(-c2ccccc2)cc1)C(=O)N[C@H]1CCc2ccccc21 (some centres not stated)
IC50 ([1]; hel): Not Active

Compound: N=C(N)NCCCC(NC(=O)C(c1ccccc1)c1ccccc1)C(=O)N[C@@H]1CCc2ccccc21 (some centres not stated)
IC50 ([1]; read-out: IC50): 21 µM

Compound: N=C(N)NCCCC(NC(=O)C(c1ccccc1)c1ccccc1)C(=O)N[C@H]1CCc2ccccc21 (some centres not stated)
IC50 ([1]; read-out: IC50): 1.4 µM

Compound: N=C(NCCCc1ccccc1)NCCCC(NC(=O)Cc1ccc(-c2ccccc2)cc1)C(=O)N1CCCc2ccccc2C1 (configuration not stated)
IC50 ([1]; hel): Not Active

Compound: N=C(N)NCCCC(NC(=O)C(c1ccccc1)(c1ccccc1)c1ccccc1)C(=O)NCc1ccccc1 (configuration not stated)
IC50 [5]: Not Active

Compound: N=C(N)NCCCC(NC(=O)Cc1ccc(-c2ccccc2)cc1)C(=O)NCc1ccccc1 (configuration not stated)
IC50 ([1]; read-out: IC50): 21.8 µM

Compound: N=C(N)NCCCC(NC(=O)C(c1ccccc1)c1ccccc1)C(=O)NCCc1ccccn1 (configuration not stated)
IC50 ([1]; read-out: IC50): 11.5 µM

Compound: N=C(N)NCCCC(NC(=O)Cc1ccc(-c2ccccc2)cc1)C(=O)N1CCCc2ccccc2C1 (configuration not stated)
IC50 ([1]; read-out: IC50): 76 µM

Compound: N=C(N)NCCCC(NC(=O)C(c1ccccc1)(c1ccccc1)c1ccccc1)C(=O)N1CCCc2ccccc2C1 (configuration not stated)
IC50 ([1]; read-out: IC50): 51 µM

Compound: N=C(N)NCCCC(NC(=O)C(c1ccccc1)c1ccccc1)C(=O)N[C@@H]1C[C@H](CO)c2ccccc21 (some centres not stated)
IC50 [5]: Not Active

Compound: C[C@H](NC(=O)C(CCCNC(=N)N)NC(=O)C(c1ccccc1)c1ccccc1)c1ccccc1 (some centres not stated)
IC50 ([1]; read-out: IC50): 2.5 µM

Compound: N=C(N)NCCCC(NC(=O)C(c1ccccc1)c1ccccc1)C(=O)N[C@H](C(N)=O)c1ccccc1 (some centres not stated)
IC50 ([1]; read-out: IC50): 7.5 µM

Compound: N=C(N)NCCCC(NC(=O)C(c1ccccc1)c1ccc(Cl)cc1)C(=O)N1CCCc2ccccc2C1 (configuration not stated)
IC50 ([1]; read-out: IC50): 1.1 µM

Compound: N=C(N)NCCCC(NC(=O)C(c1ccccc1)c1ccccc1)C(=O)NCc1ccccn1 (configuration not stated)
IC50 ([1]; read-out: IC50): 3.75 µM

Compound: N=C(N)NCCCC(NC(=O)C(c1ccccc1)c1ccccc1)C(=O)N1CCCc2ccccc2C1 (configuration not stated)
IC50 ([1]; read-out: IC50): 2.2 µM

Compound: N=C(N)NCCCC(NC(=O)C(c1ccccc1)c1ccccc1)C(=O)N[C@@H](CO)c1ccccc1 (some centres not stated)
IC50 ([1]; read-out: IC50): 22.3 µM

Compound: CC(NC(=O)C(CCCN=C(N)N)NC(=O)C(c1ccccc1)c1ccccc1)c1ccc(O)cc1 (racemic)
IC50 ([1]; read-out: IC50): 0.06 µM
IC50 [2]: 575 µM
IC50 [3]: 75 µM
IC50 [4]: 0.019 µM

Compound: N=C(N)NCCCC(NC(=O)C(c1ccccc1)c1ccccc1)C(=O)NCC1CCCCN1 (racemic)
IC50 [5]: Not Active

Compound: N=C(N)NCCCC(NC(=O)C(c1ccccc1)c1ccccc1)C(=O)NC1CCc2cc(O)ccc21 (racemic)
IC50 ([1]; read-out: IC50): 1 µM
